Experimental data from patent US20150164762A1, “USE OF ETHANOLAMINE PHOSPHATE” (priority 2012, published 2015).

Tested on: BEAS-2B
Assay: Comprehensive gene expression analysis with Whole Human Genome DNA microarray after EP treatment
Assay type: cell-based
Procedure: Cells of the established normal human airway epithelial cell line BEAS-2B were used in the experiment. These cells were expansively cultured in 10% FBS RPMI-1640, and seeded at a density of 1×10^5/cm^2 on a 24-well plate. After 24 hours 0.1% FBS RPMI-1640 was substituted, and EP was administered to a final concentration of 0 or 1 mM (n=4). After 24 hours, the cells were used as the DNA microarray samples. RNA was extracted using a QIAGEN RNeasy Mini Kit. The DNA microarray test was performed using a Whole Human Genome DNA microarray 4×44K (Agilent), and the necessary labeling reagents and the like for the DNA microarray test were all from Agilent. The DNA microarray test data were analyzed statistically with GeneSpring (Agilent) dedicated analysis software, and gene function analysis (Gene Ontology (GO) analysis) was performed based on differential expression. The purpose of the GO analysis is to determine stochastically the degree to which gene sets with statistically significant differential expression correspond to known functional classification gene sets. […] The p-value is calculated according to the following formula.

[1] = probe A_23_P1361, NM_002860, EP vs control
[2] = probe A_23_P5392, 1 mM EP, 24 h
[3] = probe A_23_P8961, NM_000880, EP vs control
[4] = probe A_23_P15247, 1 mM EP, 24 h
[5] = probe A_23_P16523, NM_004864, EP vs control
[6] = probe A_23_P21134, 1 mM EP, 24 h
[7] = probe A_23_P23960, 1 mM EP, 24 h
[8] = probe A_23_P25354, 1 mM EP, 24 h
[9] = probe A_23_P28625, 1 mM EP, 24 h

Question: With NCCOP(=O)(O)O [EP, Ethanolamine phosphate] as the compound, how does the “R*: Ratio to control” value (P2RX7, probe A_23_P25354) read?
Answer: The value was 0.561 times.

Question: What about the “log2 [ratio]” value (P2RX7, probe A_23_P25354) of the same compound?
Answer: Its value is −0.834.

Question: And the “R*: Ratio to control” value (P2RX7, probe A_24_P319113)?
Answer: Its value is 0.586 times.

Question: What about the “log2 [ratio]” value (P2RX7, probe A_24_P319113) of the same compound?
Answer: Its value is −0.772.

Question: What about the “R*: Ratio to control” value (PERP, probe A_23_P214950) of the same compound?
Answer: The value was 0.521 times.

Question: What about the “log2 [ratio]” value (PERP, probe A_23_P214950) of the same compound?
Answer: The value was −0.941.

Question: What about the “R*: Ratio to control” value (PHLDA3, probe A_23_P62959) of the same compound?
Answer: The value was 0.271 times.

Question: What about the “log2 [ratio]” value (PHLDA3, probe A_23_P62959) of the same compound?
Answer: The value was −1.884.

Question: What about the “R*: Ratio to control” value (PLK1, probe A_23_P118174) of the same compound?
Answer: The value was 2.447 times.

Question: What about the “log2 [ratio]” value (PLK1, probe A_23_P118174) of the same compound?
Answer: Its value is 1.291.

Question: And the “R*: Ratio to control” value (PLK1, probe A_24_P313504)?
Answer: Its value is 1.939 times.

Question: And the “log2 [ratio]” value (PLK1, probe A_24_P313504)?
Answer: The value was 0.955.

Question: What about the “R*: Ratio to control” value (PMAIP1, probe A_23_P207999) of the same compound?
Answer: Its value is 0.344 times.

Question: What about the “log2 [ratio]” value (PMAIP1, probe A_23_P207999) of the same compound?
Answer: Its value is −1.540.

Question: And the “R*: Ratio to control” value (PML, probe A_23_P358944)?
Answer: The value was 0.586 times.

Question: And the “log2 [ratio]” value (PML, probe A_23_P358944)?
Answer: Its value is −0.770.

Question: And the “R*: Ratio to control” value (PPAP2B, probe A_23_P201808)?
Answer: Its value is 1.919 times.

Question: And the “log2 [ratio]” value (PPAP2B, probe A_23_P201808)?
Answer: Its value is 0.941.

Question: And the “R*: Ratio to control” value (ROBO4, probe A_23_P104881)?
Answer: Its value is 1.785 times.

Question: And the “log2 [ratio]” value (ROBO4, probe A_23_P104881)?
Answer: The value was 0.836.

Question: What about the “R*: Ratio to control” value (ROBO4, probe A_23_P344421) of the same compound?
Answer: Its value is 1.633 times.

Question: And the “log2 [ratio]” value (ROBO4, probe A_23_P344421)?
Answer: Its value is 0.707.

Question: What about the “R*: Ratio to control” value (RTN4, probe A_23_P56933) of the same compound?
Answer: Its value is 1.510 times.

Question: And the “log2 [ratio]” value (RTN4, probe A_23_P56933)?
Answer: The value was 0.594.

Question: And the “R*: Ratio to control” value (SEMA4D, probe A_24_P261169)?
Answer: The value was 0.558 times.

Question: And the “log2 [ratio]” value (SEMA4D, probe A_24_P261169)?
Answer: Its value is −0.842.

Question: And the “R*: Ratio to control” value (SEPT4, probe A_23_P207003)?
Answer: The value was 0.503 times.

Question: What about the “log2 [ratio]” value (SEPT4, probe A_23_P207003) of the same compound?
Answer: The value was −0.990.

Question: And the “R*: Ratio to control” value (SKP2, probe A_23_P156310)?
Answer: The value was 1.531 times.

Question: What about the “log2 [ratio]” value (SKP2, probe A_23_P156310) of the same compound?
Answer: Its value is 0.615.

Question: What about the “R*: Ratio to control” value (SOX7, probe A_23_P169738) of the same compound?
Answer: The value was 0.362 times.

Question: What about the “log2 [ratio]” value (SOX7, probe A_23_P169738) of the same compound?
Answer: Its value is −1.464.

Question: And the “R*: Ratio to control” value (SOX7, probe A_23_P306987)?
Answer: The value was 0.338 times.

Question: And the “log2 [ratio]” value (SOX7, probe A_23_P306987)?
Answer: Its value is −1.566.

Question: What about the “R*: Ratio to control” value (SOX7, probe A_24_P226782) of the same compound?
Answer: The value was 0.607 times.

Question: And the “log2 [ratio]” value (SOX7, probe A_24_P226782)?
Answer: Its value is −0.720.

Question: And the “R*: Ratio to control” value (SST, probe A_23_P252817)?
Answer: Its value is 0.666 times.

Question: And the “log2 [ratio]” value (SST, probe A_23_P252817)?
Answer: The value was −0.587.

Question: What about the “R*: Ratio to control” value (TACSTD2, probe A_23_P149529) of the same compound?
Answer: The value was 1.507 times.

Question: What about the “log2 [ratio]” value (TACSTD2, probe A_23_P149529) of the same compound?
Answer: The value was 0.591.

Question: And the “R*: Ratio to control” value (TGFBR2, probe A_23_P211957)?
Answer: Its value is 1.634 times.

Question: And the “log2 [ratio]” value (TGFBR2, probe A_23_P211957)?
Answer: Its value is 0.708.

Question: What about the “R*: Ratio to control” value (TGFBR2, probe A_23_P337242) of the same compound?
Answer: Its value is 1.630 times.

Question: And the “log2 [ratio]” value (TGFBR2, probe A_23_P337242)?
Answer: The value was 0.705.

Question: What about the “R*: Ratio to control” value (TNFRSF17, probe A_23_P37736) of the same compound?
Answer: Its value is 2.525 times.

Question: What about the “log2 [ratio]” value (TNFRSF17, probe A_23_P37736) of the same compound?
Answer: Its value is 1.336.

Question: And the “R*: Ratio to control” value (VEGFC, probe A_23_P167096)?
Answer: The value was 1.637 times.

Question: What about the “log2 [ratio]” value (VEGFC, probe A_23_P167096) of the same compound?
Answer: The value was 0.711.

Question: What about the “R*: Ratio to control” value (WARS2, probe A_23_P74380) of the same compound?
Answer: Its value is 1.594 times.

Question: And the “log2 [ratio]” value (WARS2, probe A_23_P74380)?
Answer: The value was 0.673.

Question: And the “R*: Ratio to control” value (WDR12, probe A_23_P28625)?
Answer: Its value is 1.676 times.

Question: What about the “log2 [ratio]” value (WDR12, probe A_23_P28625) of the same compound?
Answer: The value was 0.745.

Question: And the “R*: Ratio to control” value (ZFPM2, probe A_23_P168909)?
Answer: The value was 1.678 times.

Question: What about the “log2 [ratio]” value (ZFPM2, probe A_23_P168909) of the same compound?
Answer: Its value is 0.746.

Question: And the “ALDH18A1 gene expression, R* ratio to control” value [1]?
Answer: Its value is 1.460 times.

Question: And the “ALDH18A1 gene expression, log2 [ratio]” value [1]?
Answer: The value was 0.546.

Question: What about the “TP53I3 expression R*: Ratio to control” value [2] of the same compound?
Answer: Its value is 0.423 times.

Question: What about the “TP53I3 expression log2 [ratio]” value [2] of the same compound?
Answer: Its value is −1.241.

Question: What about the “IL7 gene expression, R* ratio to control” value [3] of the same compound?
Answer: The value was 0.103 times.

Question: And the “IL7 gene expression, log2 [ratio]” value [3]?
Answer: The value was −3.273.

Question: And the “C16orf5 expression R*: Ratio to control” value [4]?
Answer: Its value is 0.519 times.

Question: What about the “C16orf5 expression log2 [ratio]” value [4] of the same compound?
Answer: Its value is −0.947.

Question: And the “GDF15 gene expression, R* ratio to control” value [5]?
Answer: The value was 0.104 times.

Question: And the “GDF15 gene expression, log2 [ratio]” value [5]?
Answer: Its value is −3.265.

Question: What about the “DDIT3 expression R*: Ratio to control” value [6] of the same compound?
Answer: The value was 0.210 times.

Question: And the “DDIT3 expression log2 [ratio]” value [6]?
Answer: The value was −2.249.

Question: What about the “BLOC1S2 expression R*: Ratio to control” value [7] of the same compound?
Answer: The value was 0.398 times.

Question: And the “BLOC1S2 expression log2 [ratio]” value [7]?
Answer: Its value is −1.336.

Question: What about the “P2RX7 expression R: Ratio to control” value [8] of the same compound?
Answer: Its value is 0.661 times.

Question: And the “P2RX7 expression log2 [ratio]” value [8]?
Answer: Its value is −0.834.

Question: And the “WDR12 expression R*: Ratio to control” value [9]?
Answer: The value was 1.676 times.

Question: And the “WDR12 expression log2 [ratio]” value [9]?
Answer: The value was 0.745.

Question: What about the “BDH1 gene expression, R* ratio to control” value (probe A_23_P29754, NM_203314, EP vs control) of the same compound?
Answer: Its value is 1.462 times.
